From patent publication US20060148858A1, “1, 2-Azole derivatives with hypoglycemic and hypolipidemic activity” (priority 2002, published 2006)

Test system: KKAY mice
Experiment: Plasma anti-arteriosclerosis index-enhancing action in mice (Test Example 2)
Format: in vivo
Conditions: Mus musculus, po, 96 h, 0.005% in powdery diet, four days, percent increase of (HDL cholesterol/total cholesterol)x100, non-treatment group taken as 100%

`CCOc1nn(-c2ccc(C(F)(F)F)cn2)cc1CCCOc1cccc(CC(=O)O)c1` [Example 30, [3-(3-{3-ethoxy-1-[5-(trifluoromethyl)-2-pyridyl]-1H-pyrazol-4-yl}propoxy)phenyl]acetic acid] was tested, and the change in vivo at 0.005 % in diet was 19%.

For `CCOc1nn(-c2ccc(C(F)(F)F)cn2)cc1CCCOc1ccccc1CC(=O)O` [Example 31, (2-(3-{3-ethoxy-1-[5-(trifluoromethyl)-2-pyridyl]-1H-pyrazol-4-yl}propoxy)phenyl]acetic acid], the change in vivo at 0.005 % in diet was 16%.

Compound `O=C(O)CCc1cc(OCCCc2cn(-c3ccc(C(F)(F)F)cn3)nc2C2CCCCC2)nn1-c1ccccc1` [Example 189, 3-[3-(3-{3-cyclohexyl-1-[5-(trifluoromethyl)-2-pyridyl]-1H-pyrazol-4-yl}propoxy)-1-phenyl-1H-pyrazol-5-yl]propionic acid] has a change in vivo at 0.005 % in diet of 20%.

With `CCC(CC)c1nn(-c2ccc(Cl)cn2)cc1CCCOc1c(CC(=O)O)cccc1OC` [Example 223, (2-{3-[1-(5-chloro-2-pyridyl)-3-(1-ethylpropyl)-1H-pyrazol-4-yl]propoxy}-3-methoxyphenyl)acetic acid] the change in vivo at 0.005 % in diet was 12%.

With `COc1cccc(CC(=O)O)c1OCCCc1cn(-c2ccc(C(F)(F)F)nn2)nc1C(C)C` [Example 274, [2-(3-{3-isopropyl-1-[6-(trifluoromethyl)pyridazin-3-yl]-1H-pyrazol-4-yl}propoxy)-3-methoxyphenyl]acetic acid] the change in vivo at 0.005 % in diet was 11%.

With `COc1ccc(CC(=O)O)cc1OCCCc1cn(-c2ccc(C(F)(F)F)cn2)nc1C1CCCCC1` [Example 304, [3-(3-{3-cyclohexyl-1-[5-(trifluoromethyl)-2-pyridinyl]-1H-pyrazol-4-yl}propoxy)-4-methoxyphenyl]acetic acid] the change in vivo at 0.005 % in diet was 13%.

For `Cc1cccc(CC(=O)O)c1OCCCc1cn(-c2ccc(C(F)(F)F)cn2)nc1C1CCCCC1` [Example 316, [2-(3-{3-cyclohexyl-1-[5-(trifluoromethyl)-2-pyridinyl]-1H-pyrazol-4-yl}propoxy)-3-methylphenyl]acetic acid], the change in vivo at 0.005 % in diet was 10%.

With `CCC(CC)c1nn(-c2ccc(C(F)(F)F)nn2)cc1CCCOc1c(C)cccc1CC(=O)O` [Example 340, [2-(3-{3-(1-ethylpropyl)-1-[6-(trifluoromethyl)pyridazin-3-yl]-1H-pyrazol-4-yl}propoxy)-3-methylphenyl]acetic acid] the change in vivo at 0.005 % in diet was 21%.
